According to the supplement of paper PMC9151546:
Where a name gives a salt, the structure may show the parent alone. ± gives the standard deviation of the averaged measurements.

Legend:
CHO-K1 [1] = test: benchmark concentration for 30% increase in micronucleus frequency (BMC30); higher = less potent clastogen
Protocol: (§1)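 Benchmark concentration modelling (PROAST, Hill/exponential model families) of the 19-concentration flow-cytometric micronucleus assay in CHO-K1 cells, with and without rat liver S9. Only non-cytotoxic and adequate (relative survival >=40%) concentrations were used. BMR was a 30% increase in %MN (BMC30) or a 60% increase in %hypodiploid (BMC60) over control.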

CHO-K1 [2] = test: benchmark concentration for 60% increase in hypodiploid frequency (BMC60); higher = less potent aneugen
Protocol: as §1

[3] = S9 metabolic activation: with S9
[4] = S9 metabolic activation: without S9

Work on `Oc1ccc(O)cc1` [Hydroquinone] yielded a benchmark concentration (CHO-K1 [1]; [3]) of 63 µM and a benchmark concentration (CHO-K1 [2]; [3]) of 90 µM.
Compound `COP(=O)(OC)OC=C(Cl)Cl` [Dichlorvos] has a benchmark concentration (CHO-K1 [1]; [4]) of 66 µM and a benchmark concentration (CHO-K1 [2]; [4]) of 90 µM.
`Nc1ccc(-c2ccc(N)cc2)cc1` [Benzidine] was tested, and the benchmark concentration (CHO-K1 [1]; [4]) was 18 µM and the benchmark concentration (CHO-K1 [2]; [4]) was 18 µM.
Work on `Cc1cccc([N+](=O)[O-])c1C` [1,2-Dimethyl-3-nitrobenzene] yielded a benchmark concentration (CHO-K1 [1]; [3]) of 59 µM, a benchmark concentration (CHO-K1 [1]; [4]) of 41 µM and a benchmark concentration (CHO-K1 [2]; [4]) of 38 µM.
`c1ccc2c(c1)-c1cccc3c1c-2cc1ccccc13` [Benzo(b)fluoranthene] gave a benchmark concentration (CHO-K1 [1]; [4]) of 130 µM and a benchmark concentration (CHO-K1 [2]; [4]) of 93 µM.
For `ClC1=C(Cl)[C@]2(Cl)[C@@H]3[C@@H]4C[C@@H]([C@H]5O[C@@H]45)[C@@H]3[C@@]1(Cl)C2(Cl)Cl` [Dieldrin], the benchmark concentration (CHO-K1 [1]; [4]) was 74 µM and the benchmark concentration (CHO-K1 [2]; [4]) was 90 µM.
In the case of `O=c1n(CC2CO2)c(=O)n(CC2CO2)c(=O)n1CC1CO1` (centres undefined) [Triglycidyl isocyanurate], the benchmark concentration (CHO-K1 [1]; [3]) is reported as less than 4.5 µM, the benchmark concentration (CHO-K1 [1]; [4]) is reported as less than 4.5 µM and the benchmark concentration (CHO-K1 [2]; [3]) is reported as 53 µM. For the same compound, the benchmark concentration (CHO-K1 [2]; [4]) was 25 µM.
Compound `ClC1=C(Cl)C2(Cl)C3C(Cl)C=CC3C1(Cl)C2(Cl)Cl` (centres undefined) [Heptachlor] has a benchmark concentration (CHO-K1 [1]; [3]) of 11 µM, a benchmark concentration (CHO-K1 [1]; [4]) of 64 µM and a benchmark concentration (CHO-K1 [2]; [3]) of 19 µM. For the same compound, the benchmark concentration (CHO-K1 [2]; [4]) was 20 µM.
`ClC1=C(Cl)C2(Cl)C3C4OC4C(Cl)C3C1(Cl)C2(Cl)Cl` (centres undefined) [Heptachlor epoxide] gave a benchmark concentration (CHO-K1 [1]; [3]) of 45 µM, a benchmark concentration (CHO-K1 [1]; [4]) of 25 µM and a benchmark concentration (CHO-K1 [2]; [4]) of 28 µM.
`Oc1ccc2ccccc2c1N=Nc1ccccc1` [C.I. Solvent Yellow 14] showed a benchmark concentration (CHO-K1 [1]; [4]) of 23 µM, a benchmark concentration (CHO-K1 [2]; [3]) of 91 µM and a benchmark concentration (CHO-K1 [2]; [4]) of 11 µM.
For `C#C[C@]1(O)CC[C@H]2[C@@H]3CCc4cc(O)ccc4[C@H]3CC[C@@]21C` [17alpha-Ethinylestradiol], the benchmark concentration (CHO-K1 [1]; [3]) was 58 µM and the benchmark concentration (CHO-K1 [2]; [4]) was less than 4.5 µM.
Compound `COC(=O)c1ccccc1O` [Methyl salicylate] has a benchmark concentration (CHO-K1 [1]; [3]) of 58 µM, a benchmark concentration (CHO-K1 [1]; [4]) of 15 µM and a benchmark concentration (CHO-K1 [2]; [4]) of 67 µM.
For `Nc1ccn([C@@H]2O[C@H](CO)[C@@H](O)[C@@H]2O)c(=O)n1` [Cytarabine hydrochloride], the benchmark concentration (CHO-K1 [1]; [3]) was 5.9 µM and the benchmark concentration (CHO-K1 [2]; [3]) was 27 µM.
For `CCc1ccc(CCOc2ccc(CC3SC(=O)NC3=O)cc2)nc1` (centres undefined) [Pioglitazone hydrochloride], the benchmark concentration (CHO-K1 [1]; [4]) was less than 4.5 µM and the benchmark concentration (CHO-K1 [2]; [4]) was 7.6 µM.
Work on `Nc1ccc(Oc2ccc(N)cc2)cc1` [4,4'-Oxydianiline] yielded a benchmark concentration (CHO-K1 [1]; [4]) of 60 µM and a benchmark concentration (CHO-K1 [2]; [4]) of 31 µM.
For `Nc1ccc(Cl)cc1` [4-Chloroaniline], the benchmark concentration (CHO-K1 [1]; [4]) was 63 µM and the benchmark concentration (CHO-K1 [2]; [4]) was 31 µM.
Work on `Nc1ccc2ccccc2c1` [2-Naphthylamine] yielded a benchmark concentration (CHO-K1 [1]; [4]) of 51 µM, a benchmark concentration (CHO-K1 [2]; [3]) of 43 µM and a benchmark concentration (CHO-K1 [2]; [4]) of 47 µM.
Compound `O=[N+]([O-])c1ccc(O)c([N+](=O)[O-])c1` [2,4-Dinitrophenol] has a benchmark concentration (CHO-K1 [1]; [4]) of 86 µM and a benchmark concentration (CHO-K1 [2]; [4]) of 49 µM.
Compound `CCOC(=O)c1ccccc1C(=O)OCC` [Diethyl phthalate] has a benchmark concentration (CHO-K1 [1]; [4]) of 100 µM and a benchmark concentration (CHO-K1 [2]; [4]) of 99 µM.
`Oc1ccccc1` [Phenol] was tested, and the benchmark concentration (CHO-K1 [1]; [4]) was 100 µM and the benchmark concentration (CHO-K1 [2]; [4]) was 57 µM.
With `CCSC(=O)N1CCCCCC1` [Molinate] the benchmark concentration (CHO-K1 [1]; [3]) was 41 µM and the benchmark concentration (CHO-K1 [2]; [4]) was 61.5 ± 3.5 µM.
Compound `NC(=Nc1ccccc1)Nc1ccccc1` [1,3-Diphenylguanidine] has a benchmark concentration (CHO-K1 [1]; [4]) of 78 µM and a benchmark concentration (CHO-K1 [2]; [4]) of 67 µM.
For `CCC(C)(C)c1ccc(O)cc1` [4-(2-Methylbutan-2-yl)phenol], the benchmark concentration (CHO-K1 [1]; [3]) was 81 µM and the benchmark concentration (CHO-K1 [2]; [4]) was 140 µM.
For `CC(C)(c1cc(Br)c(O)c(Br)c1)c1cc(Br)c(O)c(Br)c1` [3,3',5,5'-Tetrabromobisphenol A], the benchmark concentration (CHO-K1 [1]; [4]) was 44 µM, the benchmark concentration (CHO-K1 [2]; [3]) was 28 µM and the benchmark concentration (CHO-K1 [2]; [4]) was 37 µM.
For `Cc1ccccc1N` [2-Methylaniline], the benchmark concentration (CHO-K1 [1]; [4]) was 21 µM and the benchmark concentration (CHO-K1 [2]; [4]) was 49 µM.
Compound `Nc1ccc2c(c1)C(=O)c1ccccc1C2=O` [2-Aminoanthraquinone] has a benchmark concentration (CHO-K1 [1]; [3]) of 8.1 µM, a benchmark concentration (CHO-K1 [2]; [3]) of 22 µM and a benchmark concentration (CHO-K1 [2]; [4]) of 29 µM.
With `Oc1cc(Cl)c(Cl)cc1Cl` [2,4,5-Trichlorophenol] the benchmark concentration (CHO-K1 [1]; [3]) was 6.5 µM and the benchmark concentration (CHO-K1 [2]; [4]) was 38 µM.
`O=NN(c1ccccc1)c1ccccc1` [N-Nitrosodiphenylamine] gave a benchmark concentration (CHO-K1 [1]; [3]) of 120 µM, a benchmark concentration (CHO-K1 [1]; [4]) of 72 µM and a benchmark concentration (CHO-K1 [2]; [4]) of 25 µM.
For `O=C(O)C(F)(F)C(F)(F)C(F)(F)C(F)(F)C(F)(F)C(F)(F)C(F)(F)C(F)(F)C(F)(F)F` [PFDA], the benchmark concentration (CHO-K1 [1]; [3]) was 73 µM and the benchmark concentration (CHO-K1 [2]; [4]) was 73 µM.
In the case of `Nc1ccc(Nc2ccccc2)cc1` [N-Phenyl-1,4-benzenediamine], the benchmark concentration (CHO-K1 [1]; [3]) is reported as 87 µM and the benchmark concentration (CHO-K1 [2]; [4]) is reported as less than 4.5 µM.
`O=C1CN(/N=C/c2ccc([N+](=O)[O-])o2)C(=O)N1` [Nitrofurantoin] gave a benchmark concentration (CHO-K1 [1]; [4]) of 55 µM and a benchmark concentration (CHO-K1 [2]; [4]) of 31 µM.
